Consider 25 compounds from patent publication EP4667458A1 (Kanaph Therapeutics Inc., priority 2023, dated 2024).

The target in this assay is T1, KRAS^G12C::SOS1 (Homo sapiens, UniProt Q07889).
T1 sequence (Q07889 1-1333): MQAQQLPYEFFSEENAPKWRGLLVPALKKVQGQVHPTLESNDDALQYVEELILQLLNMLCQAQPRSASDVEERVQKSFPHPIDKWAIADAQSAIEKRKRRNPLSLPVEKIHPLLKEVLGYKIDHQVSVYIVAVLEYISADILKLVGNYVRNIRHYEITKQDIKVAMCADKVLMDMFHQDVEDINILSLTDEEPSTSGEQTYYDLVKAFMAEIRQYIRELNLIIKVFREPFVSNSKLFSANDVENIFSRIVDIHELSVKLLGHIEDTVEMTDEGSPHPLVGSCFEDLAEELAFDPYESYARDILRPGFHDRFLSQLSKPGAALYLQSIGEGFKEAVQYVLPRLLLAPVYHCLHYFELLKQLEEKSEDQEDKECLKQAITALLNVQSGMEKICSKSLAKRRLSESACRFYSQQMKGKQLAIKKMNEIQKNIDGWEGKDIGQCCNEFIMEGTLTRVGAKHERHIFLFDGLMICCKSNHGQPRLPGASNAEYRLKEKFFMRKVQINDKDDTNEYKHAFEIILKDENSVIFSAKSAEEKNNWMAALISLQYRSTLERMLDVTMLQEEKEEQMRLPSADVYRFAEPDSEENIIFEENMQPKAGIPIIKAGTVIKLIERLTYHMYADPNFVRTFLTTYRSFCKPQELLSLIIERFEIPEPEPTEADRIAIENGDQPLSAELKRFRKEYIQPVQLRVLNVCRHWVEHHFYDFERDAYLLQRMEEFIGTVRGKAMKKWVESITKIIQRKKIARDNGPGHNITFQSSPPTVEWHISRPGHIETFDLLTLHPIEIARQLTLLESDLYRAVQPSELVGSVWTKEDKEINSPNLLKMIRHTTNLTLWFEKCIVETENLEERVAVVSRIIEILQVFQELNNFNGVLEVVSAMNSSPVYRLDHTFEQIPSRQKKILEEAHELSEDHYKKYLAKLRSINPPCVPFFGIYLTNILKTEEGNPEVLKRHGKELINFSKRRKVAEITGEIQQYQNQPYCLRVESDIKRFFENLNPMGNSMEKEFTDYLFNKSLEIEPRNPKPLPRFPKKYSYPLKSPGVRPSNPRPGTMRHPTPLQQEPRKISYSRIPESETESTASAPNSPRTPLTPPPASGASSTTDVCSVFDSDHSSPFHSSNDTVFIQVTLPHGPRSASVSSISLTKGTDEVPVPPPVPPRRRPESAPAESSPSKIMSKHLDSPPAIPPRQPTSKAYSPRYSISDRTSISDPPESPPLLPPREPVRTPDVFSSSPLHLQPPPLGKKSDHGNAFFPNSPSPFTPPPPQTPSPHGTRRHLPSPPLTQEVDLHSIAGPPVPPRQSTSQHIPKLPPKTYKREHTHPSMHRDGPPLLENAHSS
Description: KRAS G12C::SOS1 protein-protein interaction (PPI) inhibition assay (HTRF binding kit).
In the case of `COc1cnccc1-n1nc(C(=O)N[C@H](C)c2cc(N)cc(C(F)(F)F)c2)ccc1=O` [Example 145, N-[(1R)-1-[3-amino-5-(trifluoromethyl)phenyl]ethyl]-1-(3-methoxy-4-pyridyl)-6-oxo-pyridazine-3-carboxamide], the IC50 was < 1 µM.

Consider `C[C@@H](NC(=O)c1ccc(=O)n(-c2cccnc2)n1)c1cccc(C(F)(F)CO)c1F` [Example 146, N-[(1R)-1-[3-(1,1-difluoro-2-hydroxy-ethyl)-2-fluoro-phenyl]ethyl]-6-oxo-1-(3-pyridyl)pyridazine-3-carboxamide], for which the IC50 is < 1 µM.

Turning to `C[C@@H](NC(=O)c1ccc(=O)n(-c2cccnc2F)c1)c1cccc(C(F)(F)CO)c1F` [Example 147, N-[(1R)-1-[3-(1,1-difluoro-2-hydroxy-ethyl)-2-fluoro-phenyl]ethyl]-1-(2-fluoro-3-pyridyl)-6-oxo-pyridine-3-carboxamide], the IC50 was < 1 µM.

Regarding `Cc1ncc(-n2nc(C(=O)N[C@H](C)c3cc(N)cc(C(F)(F)F)c3)ccc2=O)cn1` [Example 161, N-[(1R)-1-[3-amino-5-(trifluoromethyl)phenyl]ethyl]-1-(2-methylpyrimidin-5-yl)-6-oxo-pyridazine-3-carboxamide], the IC50 is < 1 µM.

Take `C[C@@H](NC(=O)c1ccc(=O)n(-c2ccncc2)c1)c1cccc(C(F)(F)CO)c1F` [Example 162, N-[(1R)-1-[3-(1,1-difluoro-2-hydroxy-ethyl)-2-fluoro-phenyl]ethyl]-6-oxo-1-(4-pyridyl)pyridine-3-carboxamide]: the IC50 was < 1 µM.

As for `C[C@@H](NC(=O)c1ccc(=O)n(-c2ccncc2)c1)c1cc(N)cc(C(F)(F)F)c1` [Example 163, N-[(1R)-1-[3-amino-5-(trifluoromethyl)phenyl]ethyl]-6-oxo-1-(4-pyridyl)pyridine-3-carboxamide], the IC50 was < 1 µM.

For the compound `C[C@@H](NC(=O)c1ccc(=O)n(-c2cnn(C)c2)c1)c1cccc(C(F)(F)CO)c1F` [Example 164, N-[(1R)-1-[3-(1,1-difluoro-2-hydroxy-ethyl)-2-fluoro-phenyl]ethyl]-1-(1-methylpyrazol-4-yl)-6-oxo-pyridine-3-carboxamide], the IC50 is < 1 µM.

As to `C[C@@H](NC(=O)c1ccc(=O)n(-c2cnn(C)c2)c1)c1cc(N)cc(C(F)(F)F)c1` [Example 165, N-[(1R)-1-[3-amino-5-(trifluoromethyl)phenyl]ethyl]-1-(1-methylpyrazol-4-yl)-6-oxo-pyridine-3-carboxamide], the half-maximal inhibitory concentration (IC50) was < 1 µM.

For the compound `C[C@@H](NC(=O)c1ccc(=O)n(-c2cccc(C(=O)N(C)C)c2)c1)c1cc(N)cc(C(F)(F)F)c1` [Example 166, N-[(1R)-1-[3-amino-5-(trifluoromethyl)phenyl]ethyl]-1-[3-(dimethylcarbamoyl)phenyl]-6-oxo-pyridine-3-carboxamide], the IC50 was < 1 µM.

As for `C[C@@H](NC(=O)c1ccc(=O)n(-c2cccc(S(C)(=O)=O)c2)c1)c1cc(N)cc(C(F)(F)F)c1` [Example 167, N-[(1R)-1-[3-amino-5-(trifluoromethyl)phenyl]ethyl]-1-(3-methylsulfonylphenyl)-6-oxo-pyridine-3-carboxamide], the 50% inhibitory concentration (IC50) was < 1 µM.

For `COc1ccccc1-n1cc(C(=O)N[C@H](C)c2cc(N)cc(C(F)(F)F)c2)ccc1=O` [Example 168, N-[(1R)-1-[3-amino-5-(trifluoromethyl)phenyl]ethyl]-1-(2-methoxyphenyl)-6-oxo-pyridine-3-carboxamide], the IC50 was < 1 µM.

Take `C[C@@H](NC(=O)c1ccc(=O)n(-c2cccc(CO)c2)n1)c1cc(N)cc(C(F)(F)F)c1` [Example 169, N-[(1R)-1-[3-amino-5-(trifluoromethyl)phenyl]ethyl]-1-[3-(hydroxymethyl)phenyl]-6-oxo-pyridazine-3-carboxamide]: the IC50 was < 1 µM.

Consider `C[C@@H](NC(=O)c1ccc(=O)n(-c2cccc(CO)c2)n1)c1cccc(C(F)(F)CO)c1F` [Example 170, N-[(1R)-1-[3-(1,1-difluoro-2-hydroxy-ethyl)-2-fluoro-phenyl]ethyl]-1-[3-(hydroxymethyl)phenyl]-6-oxo-pyridazine-3-carboxamide], for which the IC50 was < 1 µM.

As to `C[C@@H](O)c1cccc(-n2nc(C(=O)N[C@H](C)c3cc(N)cc(C(F)(F)F)c3)ccc2=O)c1` [Example 173, N-[(1R)-1-[3-amino-5-(trifluoromethyl)phenyl]ethyl]-1-[3-[(1R)-1-hydroxyethyl]phenyl]-6-oxo-pyridazine-3-carboxamide], the IC50 was < 1 µM.

Turning to `C[C@H](O)c1cccc(-n2nc(C(=O)N[C@H](C)c3cc(N)cc(C(F)(F)F)c3)ccc2=O)c1` [Example 174, N-[(1R)-1-[3-amino-5-(trifluoromethyl)phenyl]ethyl]-1-[3-[(1S)-1-hydroxyethyl]phenyl]-6-oxo-pyridazine-3-carboxamide], the IC50 is < 1 µM.

Turning to `C[C@@H](NC(=O)c1ccc(=O)n(-c2cccnc2)c1)c1cccc(C(F)(F)CO)c1F` [Example 175, N-[(1R)-1-[3-(1,1-difluoro-2-hydroxy-ethyl)-2-fluoro-phenyl]ethyl]-6-oxo-1-(3-pyridyl)pyridine-3-carboxamide], the IC50 lay in the range of 1 to 10 µM.

`C[C@@H](NC(=O)c1ccc(=O)n(-c2cccnc2)c1)c1cc(N)cc(C(F)(F)F)c1` [Example 176, N-[(1R)-1-[3-amino-5-(trifluoromethyl)phenyl]ethyl]-6-oxo-1-(3-pyridyl)pyridine-3-carboxamide]: the IC50 is > 10 µM.

As for `COc1ccc(F)c(-n2cc(C(=O)N[C@H](C)c3cccc(C(F)(F)CO)c3F)ccc2=O)c1` [Example 177, N-[(1R)-1-[3-(1,1-difluoro-2-hydroxy-ethyl)-2-fluoro-phenyl]ethyl]-1-(2-fluoro-5-methoxyphenyl)-6-oxo-pyridine-3-carboxamide], the IC50 is < 1 µM.

For the compound `COc1ccc(F)c(-n2cc(C(=O)N[C@H](C)c3cc(N)cc(C(F)(F)F)c3)ccc2=O)c1` [Example 178, N-[(1R)-1-[3-amino-5-(trifluoromethyl)phenyl]ethyl]-1-(2-fluoro-5-methoxy-phenyl)-6-oxo-pyridine-3-carboxamide], the IC50 is < 1 µM.

As for `COc1ccc(-n2cc(C(=O)N[C@H](C)c3cccc(C(F)(F)CO)c3F)ccc2=O)c(F)c1` [Example 179, N-[(1R)-1-[3-(1,1-difluoro-2-hydroxy-ethyl)-2-fluoro-phenyl]ethyl]-1-(2-fluoro-4-methoxyphenyl)-6-oxo-pyridine-3-carboxamide], the IC50 is < 1 µM.

Turning to `COc1ccc(-n2cc(C(=O)N[C@H](C)c3cc(N)cc(C(F)(F)F)c3)ccc2=O)c(F)c1` [Example 180, N-[(1R)-1-[3-amino-5-(trifluoromethyl)phenyl]ethyl]-1-(2-fluoro-4-methoxy-phenyl)-6-oxo-pyridine-3-carboxamide], the half-inhibitory concentration (IC50) is < 1 µM.

In the case of `C[C@@H](NC(=O)c1ccc(=O)n(-c2ccccc2F)c1)c1cccc(C(F)(F)CO)c1F` [Example 181, N-[(1R)-1-[3-(1,1-difluoro-2-hydroxy-ethyl)-2-fluoro-phenyl]ethyl]-1-(2-fluorophenyl)-6-oxo-pyridine-3-carboxamide], the IC50 was < 1 µM.

On to `COc1ccc(F)c(-n2nc(C(=O)N[C@H](C)c3cccc(C(F)(F)CO)c3F)ccc2=O)c1` [Example 182, N-[(1R)-1-[3-(1,1-difluoro-2-hydroxy-ethyl)-2-fluoro-phenyl]ethyl]-1-(2-fluoro-5-methoxyphenyl)-6-oxo-pyridazine-3-carboxamide], for which the IC50 was < 1 µM.

For `COc1ccc(F)c(-n2nc(C(=O)N[C@H](C)c3cc(N)cc(C(F)(F)F)c3)ccc2=O)c1` [Example 183, N-[(1R)-1-[3-amino-5-(trifluoromethyl)phenyl]ethyl]-1-(2-fluoro-5-methoxy-phenyl)-6-oxo-pyridazine-3-carboxamide], the concentration for half-maximal inhibition (IC50) was < 1 µM.

Regarding `COc1cccc(-n2nc(C(=O)N[C@H](C)c3cccc(C(F)(F)CO)c3F)ccc2=O)c1F` [Example 184, N-[(1R)-1-[3-(1,1-difluoro-2-hydroxy-ethyl)-2-fluoro-phenyl]ethyl]-1-(2-fluoro-3-methoxyphenyl)-6-oxo-pyridazine-3-carboxamide], the IC50 is < 1 µM.
